Legend:
[1] = biological target: T1, Estrogen receptor (Homo sapiens, UniProt P03372); test: biochemical
T1 sequence (P03372 whole entry): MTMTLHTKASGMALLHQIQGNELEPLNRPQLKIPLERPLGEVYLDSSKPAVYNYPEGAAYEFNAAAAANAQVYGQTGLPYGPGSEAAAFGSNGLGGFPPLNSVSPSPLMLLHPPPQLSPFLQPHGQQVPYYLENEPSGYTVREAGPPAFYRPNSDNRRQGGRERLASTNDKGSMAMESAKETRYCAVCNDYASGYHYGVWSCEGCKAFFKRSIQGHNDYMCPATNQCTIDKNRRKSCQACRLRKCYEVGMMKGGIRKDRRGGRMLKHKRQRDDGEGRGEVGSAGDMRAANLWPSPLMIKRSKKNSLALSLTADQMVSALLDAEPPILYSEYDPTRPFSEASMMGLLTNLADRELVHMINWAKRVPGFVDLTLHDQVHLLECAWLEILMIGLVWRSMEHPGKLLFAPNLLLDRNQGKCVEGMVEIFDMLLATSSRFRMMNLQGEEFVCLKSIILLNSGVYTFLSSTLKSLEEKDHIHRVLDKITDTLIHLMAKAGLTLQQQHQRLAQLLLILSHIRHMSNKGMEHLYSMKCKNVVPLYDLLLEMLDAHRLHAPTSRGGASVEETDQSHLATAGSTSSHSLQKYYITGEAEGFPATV

[2] = biological target: T1, Estrogen receptor
Description: Effect on ERalpha in MCF7 cell line transfected with ER responsive luciferase reporter

[3] = biological target: Estrogen receptor beta (Rattus norvegicus, UniProt Q62986)
Chain of Estrogen receptor beta (Rattus norvegicus, UniProt Q62986) (Q62986 whole entry): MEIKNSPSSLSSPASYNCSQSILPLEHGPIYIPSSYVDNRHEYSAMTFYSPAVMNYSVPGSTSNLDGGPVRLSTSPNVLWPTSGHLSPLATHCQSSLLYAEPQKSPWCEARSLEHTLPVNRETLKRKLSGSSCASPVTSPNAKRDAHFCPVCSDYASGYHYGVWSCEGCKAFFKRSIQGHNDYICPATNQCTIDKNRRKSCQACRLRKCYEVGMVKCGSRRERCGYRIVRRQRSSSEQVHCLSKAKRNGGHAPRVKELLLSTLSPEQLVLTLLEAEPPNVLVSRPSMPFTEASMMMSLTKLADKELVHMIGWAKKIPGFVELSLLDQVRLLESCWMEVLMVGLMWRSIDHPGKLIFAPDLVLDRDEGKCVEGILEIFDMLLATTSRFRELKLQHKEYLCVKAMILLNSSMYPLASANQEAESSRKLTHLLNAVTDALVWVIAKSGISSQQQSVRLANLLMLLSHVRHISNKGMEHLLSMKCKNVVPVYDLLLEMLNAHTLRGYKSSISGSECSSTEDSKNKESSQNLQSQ
Description: Effect on ERbeta in rat ovary granulosa cell line transfected with ER responsive luciferase reporter

[4] = biological target: Estrogen receptor beta (Homo sapiens, UniProt Q92731); test: biochemical
Chain of Estrogen receptor beta (Homo sapiens, UniProt Q92731) (Q92731 whole entry): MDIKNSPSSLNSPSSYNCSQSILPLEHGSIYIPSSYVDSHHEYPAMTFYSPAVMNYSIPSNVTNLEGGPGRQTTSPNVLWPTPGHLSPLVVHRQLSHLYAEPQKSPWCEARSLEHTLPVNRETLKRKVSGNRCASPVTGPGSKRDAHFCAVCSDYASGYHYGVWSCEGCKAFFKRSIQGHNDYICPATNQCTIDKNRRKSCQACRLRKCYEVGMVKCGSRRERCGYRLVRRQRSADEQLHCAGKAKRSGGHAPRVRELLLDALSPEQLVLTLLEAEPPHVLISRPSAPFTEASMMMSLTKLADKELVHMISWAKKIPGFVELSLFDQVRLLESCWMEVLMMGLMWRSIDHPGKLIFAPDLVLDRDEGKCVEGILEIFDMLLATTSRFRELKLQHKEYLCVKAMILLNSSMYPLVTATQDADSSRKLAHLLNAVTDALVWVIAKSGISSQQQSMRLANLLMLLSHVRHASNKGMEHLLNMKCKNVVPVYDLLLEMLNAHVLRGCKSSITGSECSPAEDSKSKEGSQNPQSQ

Structure (SMILES) | IC50 [1] | EC50 [2] | EC50 [3] | IC50 [4]
Cn1cccc1-c1nc2ccccc2n1-c1ccc(O)cc1 | 2940 nM | > 1000 nM | 40.8 nM | 28.1 nM
Oc1ccc(-c2[nH]c3ccccc3c2-c2ccccc2)cc1 | 8310 nM | – | – | 355 nM
Oc1ccc(-c2noc(C(F)(F)F)c2-c2ccccc2)cc1 | 8.5 nM | – | – | 2.4 nM
Oc1ccc(-c2[nH]c3ccccc3c2-c2ccc(O)cc2)cc1 | 94.8 nM | – | – | 11.9 nM
Oc1ccc(-n2c(-c3ccccc3)nc3ccccc32)cc1 | 1800 nM | – | – | 137 nM
c1ccc(-c2[nH]c3ccccc3c2-c2ccccc2)cc1 | 6950 nM | – | – | 171 nM
Oc1ccc(-c2[nH]c(C(F)(F)F)nc2-c2ccccc2)cc1 | 403 nM | 243 nM | 6.7 nM | 15.1 nM
Oc1ccc(-n2c(-c3cccs3)nc3ccccc32)cc1 | > 6260 nM | – | – | 49.7 nM
Oc1ccc(-n2c(-c3ccccc3Cl)nc3ccccc32)cc1 | 1730 nM | – | – | 149 nM
Oc1ccc(-c2c(-c3ccccc3)[nH]c3ccccc23)cc1 | 24 nM | 38.5 nM | 1.09 nM | 1.12 nM
Cc1nocc1-c1nc2ccccc2n1-c1ccc(O)cc1 | 1160 nM | – | – | 14.3 nM

From ChEMBL document CHEMBL1141242, “Estrogen receptor beta selective ligands: discovery and SAR of novel heterocyclic ligands” (Bioorg Med Chem Lett, 2005)
